Holding throughout (assay): cAMP functional assay (HTRF) in HEK293 cells in presence of 0.1% casein
Type in all cases: cell-based
A general note: TR-FRET usually uses a lanthanide donor and a delayed reading to cut background.

The target in assay [1] is T1, human glucagon receptor (GcgR) (Homo sapiens, UniProt P47871).
T1 construct: expressed in transfected cells; host or cells: HEK293
As to conditions: HEK293 cells expressing human GcgR, geometric mean, read-out: hGcgR cAMP Rel EC50 nM (SEM, n).

Assay [2] deals with T2, human glucose-dependent insulinotropic peptide receptor (GIPR) (Homo sapiens, UniProt P48546).
T2 construct: expressed in transfected cells; host or cells: HEK293
T2 sequence (P48546 22-466): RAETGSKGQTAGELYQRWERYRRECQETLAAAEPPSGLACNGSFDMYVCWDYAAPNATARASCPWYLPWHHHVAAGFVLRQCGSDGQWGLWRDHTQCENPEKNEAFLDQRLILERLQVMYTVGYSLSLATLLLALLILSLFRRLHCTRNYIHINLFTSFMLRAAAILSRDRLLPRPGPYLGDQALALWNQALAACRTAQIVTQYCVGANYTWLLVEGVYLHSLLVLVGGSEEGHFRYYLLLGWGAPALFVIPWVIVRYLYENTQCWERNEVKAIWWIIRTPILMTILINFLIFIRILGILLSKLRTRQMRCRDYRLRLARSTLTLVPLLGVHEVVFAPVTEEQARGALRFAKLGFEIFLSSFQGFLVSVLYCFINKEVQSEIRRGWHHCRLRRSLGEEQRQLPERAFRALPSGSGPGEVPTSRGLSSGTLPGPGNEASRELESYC
To be noted: HEK293 cells expressing human GIPR, geometric mean, read-out: hGIPR cAMP Rel EC50 nM (SEM, n).

The target of assay [3] is T3, human GLP-1 receptor (GLP-1R) (Homo sapiens, UniProt P43220).
T3 construct: expressed in transfected cells; host or cells: HEK293
T3 sequence (P43220 24-463): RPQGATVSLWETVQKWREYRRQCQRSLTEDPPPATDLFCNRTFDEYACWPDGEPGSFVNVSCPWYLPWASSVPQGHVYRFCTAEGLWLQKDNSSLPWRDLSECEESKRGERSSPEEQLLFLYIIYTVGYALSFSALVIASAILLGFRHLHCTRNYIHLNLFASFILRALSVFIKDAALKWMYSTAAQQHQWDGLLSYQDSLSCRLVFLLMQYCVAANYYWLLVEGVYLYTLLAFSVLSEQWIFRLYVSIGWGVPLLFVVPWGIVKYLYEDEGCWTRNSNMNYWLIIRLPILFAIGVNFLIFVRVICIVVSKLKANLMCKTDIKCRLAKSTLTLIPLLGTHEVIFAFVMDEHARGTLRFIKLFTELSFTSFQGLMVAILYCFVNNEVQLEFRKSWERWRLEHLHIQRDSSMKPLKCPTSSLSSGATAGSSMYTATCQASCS
To be noted: HEK293 cells expressing human GLP-1R, geometric mean, read-out: hGLP1R cAMP Rel EC50 nM (SEM, n).

*1 amine or outer side, *2 acyl side, *3 side chain or, on linkers, in order; H or OH if unused. Where a SMILES comes first, the peptide text is derived from it. Side-chain parts run from the residue outwards. [ ]: non-standard residue; d: D form. The star is where a group is joined. C20 diacid = O=C(O)CCCCCCCCCCCCCCCCCCC(=O)*; γGlu = O=C(O)[C@H](CCC(=O)[*:2])N[*:1]; 4Pal = N[C@@H](Cc1ccncc1)C(=O)O; αMeL = CC(C)C[C@](C)(N)C(=O)O; AEEA = NCCOCCOCC(=O)O; Aib = CC(C)(N)C(=O)O Some results are limits rather than exact numbers.

T1 sequence (P47871 26-477): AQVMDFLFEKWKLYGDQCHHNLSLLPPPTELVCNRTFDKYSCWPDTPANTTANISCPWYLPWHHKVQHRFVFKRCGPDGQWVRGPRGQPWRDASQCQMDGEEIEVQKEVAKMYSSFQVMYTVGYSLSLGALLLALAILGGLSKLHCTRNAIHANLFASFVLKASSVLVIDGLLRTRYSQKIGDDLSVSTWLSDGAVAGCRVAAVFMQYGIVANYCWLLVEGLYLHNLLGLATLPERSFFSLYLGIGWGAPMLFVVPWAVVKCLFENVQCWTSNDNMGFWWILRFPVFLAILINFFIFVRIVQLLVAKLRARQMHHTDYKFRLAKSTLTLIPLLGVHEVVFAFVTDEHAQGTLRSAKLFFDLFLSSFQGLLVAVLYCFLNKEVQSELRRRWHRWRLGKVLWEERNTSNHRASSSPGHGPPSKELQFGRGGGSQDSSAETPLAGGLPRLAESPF

The EC50 is the concentration that produces a half-maximal response. On to `CC[C@H](C)[C@H](NC(=O)[C@H](Cc1ccccc1)NC(=O)[C@@H](NC(=O)CNC(=O)[C@H](CCC(=O)O)NC(=O)C(C)(C)NC(=O)[C@@H](N)Cc1ccc(O)cc1)[C@@H](C)O)C(=O)N[C@@H](CO)C(=O)N[C@@H](CC(=O)O)C(=O)N[C@@H](Cc1ccc(O)cc1)C(=O)N[C@@H](CO)C(=O)N[C@H](C(=O)N[C@@](C)(CC(C)C)C(=O)N[C@@H](CC(C)C)C(=O)N[C@@H](CC(=O)O)C(=O)N[C@@H](CCCCN)C(=O)N[C@@H](CCCCNC(=O)COCCOCCNC(=O)COCCOCCNC(=O)CC[C@H](NC(=O)CCCCCCCCCCCCCCCCCCC(=O)O)C(=O)O)C(=O)N[C@@H](Cc1c[nH]cn1)C(=O)N[C@@H](CCC(N)=O)C(=O)NC(C)(C)C(=O)N[C@@H](CC(=O)O)C(=O)N[C@@H](Cc1ccccc1)C(=O)N[C@H](C(=O)N[C@@H](CCC(=O)O)C(=O)N[C@@H](Cc1ccc(O)cc1)C(=O)N[C@@H](CC(C)C)C(=O)N[C@@H](CC(C)C)C(=O)N[C@@H](CCC(=O)O)C(=O)N[C@H](C(=O)NCC(=O)N1CCC[C@H]1C(=O)N[C@@H](CO)C(=O)N[C@@H](CO)C(=O)NCC(=O)N[C@@H](C)C(=O)N1CCC[C@H]1C(=O)N1CCC[C@H]1C(=O)N1CCC[C@H]1C(=O)N[C@@H](CO)C(N)=O)[C@@H](C)O)C(C)C)[C@@H](C)CC` [Example 66] (H-Y[Aib]EGTFISDYSI[αMeL]LDKK([AEEA-AEEA-γGlu-C20 diacid])HQ[Aib]DFVEYLLETGPSSGAPPPS-NH2), for which the half-maximal effective concentration (EC50) was greater than 5000 nM in assay [1], 0.0786 nM in assay [2] and greater than 5000 nM in assay [3].

Consider `CC[C@H](C)[C@H](NC(=O)[C@H](Cc1ccccc1)NC(=O)[C@@H](NC(=O)CNC(=O)[C@H](CCC(=O)O)NC(=O)C(C)(C)NC(=O)[C@@H](N)Cc1ccc(O)cc1)[C@@H](C)O)C(=O)N[C@@H](CO)C(=O)N[C@@H](CC(=O)O)C(=O)N[C@@H](Cc1ccc(O)cc1)C(=O)N[C@@H](CO)C(=O)N[C@H](C(=O)N[C@@](C)(CC(C)C)C(=O)N[C@@H](CC(C)C)C(=O)N[C@@H](CC(=O)O)C(=O)N[C@@H](CCCCN)C(=O)N[C@@H](CCCCNC(=O)COCCOCCNC(=O)COCCOCCNC(=O)CC[C@H](NC(=O)CCCCCCCCCCCCCCCCCCC(=O)O)C(=O)O)C(=O)N[C@@H](Cc1c[nH]cn1)C(=O)N[C@@H](CCC(N)=O)C(=O)NC(C)(C)C(=O)N[C@@H](CC(=O)O)C(=O)N[C@@H](Cc1ccccc1)C(=O)N[C@H](C(=O)N[C@@H](CCC(=O)O)C(=O)N[C@@H](Cc1ccc(O)cc1)C(=O)N[C@@H](CC(C)C)C(=O)N[C@@H](CC(C)C)C(=O)N[C@@H](CCC(=O)O)C(=O)N[C@@H](C)C(=O)NCC(=O)N1CCC[C@H]1C(=O)N[C@@H](CO)C(=O)N[C@@H](CO)C(=O)NCC(=O)N[C@@H](C)C(=O)N1CCC[C@H]1C(=O)N1CCC[C@H]1C(=O)N1CCC[C@H]1C(=O)N[C@@H](CO)C(N)=O)C(C)C)[C@@H](C)CC` [Example 68] (H-Y[Aib]EGTFISDYSI[αMeL]LDKK([AEEA-AEEA-γGlu-C20 diacid])HQ[Aib]DFVEYLLEAGPSSGAPPPS-NH2), for which the EC50 in assay [1] was 3030 nM; in assay [2], 0.0768 nM; in assay [3], greater than 5000 nM.

`CC[C@H](C)[C@H](NC(=O)[C@H](Cc1ccccc1)NC(=O)[C@@H](NC(=O)CNC(=O)[C@H](CCC(=O)O)NC(=O)C(C)(C)NC(=O)[C@@H](N)Cc1ccc(O)cc1)[C@@H](C)O)C(=O)N[C@@H](CO)C(=O)N[C@@H](CC(=O)O)C(=O)N[C@@H](Cc1ccc(O)cc1)C(=O)N[C@@H](CO)C(=O)N[C@H](C(=O)N[C@@](C)(CC(C)C)C(=O)N[C@@H](CC(C)C)C(=O)N[C@@H](CC(=O)O)C(=O)N[C@@H](CCCCN)C(=O)N[C@@H](CCCCNC(=O)COCCOCCNC(=O)COCCOCCNC(=O)CC[C@H](NC(=O)CCCCCCCCCCCCCCCCCCC(=O)O)C(=O)O)C(=O)N[C@@H](Cc1c[nH]cn1)C(=O)N[C@@H](CCC(N)=O)C(=O)NC(C)(C)C(=O)N[C@@H](CC(=O)O)C(=O)N[C@@H](Cc1ccccc1)C(=O)N[C@H](C(=O)N[C@@H](CCC(=O)O)C(=O)N[C@@H](Cc1ccc(O)cc1)C(=O)N[C@@H](CC(C)C)C(=O)N[C@@H](CC(C)C)C(=O)N[C@@H](CCC(=O)O)C(=O)NCC(=O)NCC(=O)N1CCC[C@H]1C(=O)N[C@@H](CO)C(=O)N[C@@H](CO)C(=O)NCC(=O)N[C@@H](C)C(=O)N1CCC[C@H]1C(=O)N1CCC[C@H]1C(=O)N1CCC[C@H]1C(=O)N[C@@H](CO)C(N)=O)C(C)C)[C@@H](C)CC` [Example 69] (H-Y[Aib]EGTFISDYSI[αMeL]LDKK([AEEA-AEEA-γGlu-C20 diacid])HQ[Aib]DFVEYLLEGGPSSGAPPPS-NH2): the figures for the EC50 in assay [1], in assay [2] and in assay [3] were 803 nM, 0.0302 nM and greater than 5000 nM, respectively.

On to `CC[C@H](C)[C@H](NC(=O)[C@H](Cc1ccccc1)NC(=O)[C@@H](NC(=O)CNC(=O)[C@H](CCC(=O)O)NC(=O)C(C)(C)NC(=O)[C@@H](N)Cc1ccc(O)cc1)[C@@H](C)O)C(=O)N[C@@H](CO)C(=O)N[C@@H](CC(=O)O)C(=O)N[C@@H](Cc1ccc(O)cc1)C(=O)N[C@@H](CO)C(=O)N[C@H](C(=O)N[C@@](C)(CC(C)C)C(=O)N[C@@H](CC(C)C)C(=O)N[C@@H](CC(=O)O)C(=O)N[C@@H](CCCCN)C(=O)N[C@@H](CCCCNC(=O)COCCOCCNC(=O)COCCOCCNC(=O)CC[C@H](NC(=O)CCCCCCCCCCCCCCCCCCC(=O)O)C(=O)O)C(=O)N[C@@H](Cc1c[nH]cn1)C(=O)N[C@@H](CCC(N)=O)C(=O)NC(C)(C)C(=O)N[C@@H](CC(=O)O)C(=O)N[C@@H](Cc1ccccc1)C(=O)N[C@H](C(=O)N[C@@H](CCC(=O)O)C(=O)N[C@@H](Cc1ccncc1)C(=O)N[C@@H](CC(C)C)C(=O)N[C@@H](CC(C)C)C(=O)N[C@@H](C)C(=O)N[C@H](C(=O)NCC(=O)N1CCC[C@H]1C(=O)N[C@@H](CO)C(=O)N[C@@H](CO)C(=O)NCC(=O)N[C@@H](C)C(=O)N1CCC[C@H]1C(=O)N1CCC[C@H]1C(=O)N1CCC[C@H]1C(=O)N[C@@H](CO)C(N)=O)[C@@H](C)O)C(C)C)[C@@H](C)CC` [Example 70] (H-Y[Aib]EGTFISDYSI[αMeL]LDKK([AEEA-AEEA-γGlu-C20 diacid])HQ[Aib]DFVE[4Pal]LLATGPSSGAPPPS-NH2), for which the EC50 in assay [1] was 3560 nM; in assay [2], 0.0254 nM; in assay [3], greater than 5000 nM.

Take `CC[C@H](C)[C@H](NC(=O)[C@H](Cc1ccccc1)NC(=O)[C@@H](NC(=O)CNC(=O)[C@H](CCC(=O)O)NC(=O)C(C)(C)NC(=O)[C@@H](N)Cc1ccc(O)cc1)[C@@H](C)O)C(=O)N[C@@H](CO)C(=O)N[C@@H](CC(=O)O)C(=O)N[C@@H](Cc1ccc(O)cc1)C(=O)N[C@@H](CO)C(=O)N[C@H](C(=O)N[C@@](C)(CC(C)C)C(=O)N[C@@H](CC(C)C)C(=O)N[C@@H](CC(=O)O)C(=O)N[C@@H](CCCCN)C(=O)N[C@@H](CCCCNC(=O)COCCOCCNC(=O)COCCOCCNC(=O)CC[C@H](NC(=O)CCCCCCCCCCCCCCCCCCC(=O)O)C(=O)O)C(=O)N[C@@H](Cc1c[nH]cn1)C(=O)N[C@@H](CCC(N)=O)C(=O)NC(C)(C)C(=O)N[C@@H](CC(=O)O)C(=O)N[C@@H](Cc1ccccc1)C(=O)N[C@H](C(=O)N[C@@H](CCC(=O)O)C(=O)N[C@@H](Cc1c[nH]c2ccccc12)C(=O)N[C@@H](CC(C)C)C(=O)N[C@@H](CC(C)C)C(=O)N[C@@H](CCC(=O)O)C(=O)N[C@H](C(=O)NCC(=O)N1CCC[C@H]1C(=O)N[C@@H](CO)C(=O)N[C@@H](CO)C(=O)NCC(=O)N[C@@H](C)C(=O)N1CCC[C@H]1C(=O)N1CCC[C@H]1C(=O)N1CCC[C@H]1C(=O)N[C@@H](CO)C(N)=O)[C@@H](C)O)C(C)C)[C@@H](C)CC` [Example 71] (H-Y[Aib]EGTFISDYSI[αMeL]LDKK([AEEA-AEEA-γGlu-C20 diacid])HQ[Aib]DFVEWLLETGPSSGAPPPS-NH2): the EC50 was 581 nM in assay [1], 0.0721 nM in assay [2] and greater than 5000 nM in assay [3].

Consider `CC[C@H](C)[C@H](NC(=O)[C@H](CC(C)C)NC(=O)[C@@H](NC(=O)CNC(=O)[C@H](CCC(=O)O)NC(=O)C(C)(C)NC(=O)[C@@H](N)Cc1ccc(O)cc1)[C@@H](C)O)C(=O)N[C@@H](CO)C(=O)N[C@@H](CC(=O)O)C(=O)N[C@@H](Cc1ccc(O)cc1)C(=O)N[C@@H](CO)C(=O)N[C@H](C(=O)N[C@@](C)(CC(C)C)C(=O)N[C@@H](CC(C)C)C(=O)N[C@@H](CC(=O)O)C(=O)N[C@@H](CCCCN)C(=O)N[C@@H](CCCCNC(=O)COCCOCCNC(=O)COCCOCCNC(=O)CC[C@H](NC(=O)CCCCCCCCCCCCCCCCCCC(=O)O)C(=O)O)C(=O)N[C@@H](Cc1c[nH]cn1)C(=O)N[C@@H](CCC(N)=O)C(=O)NC(C)(C)C(=O)N[C@@H](CCC(=O)O)C(=O)N[C@@H](Cc1ccccc1)C(=O)N[C@H](C(=O)N[C@@H](CCC(=O)O)C(=O)N[C@@H](Cc1ccc(O)cc1)C(=O)N[C@@H](CC(C)C)C(=O)N[C@@H](CC(C)C)C(=O)N[C@@H](CCC(=O)O)C(=O)N[C@H](C(=O)NCC(=O)N1CCC[C@H]1C(=O)N[C@@H](CO)C(=O)N[C@@H](CO)C(=O)NCC(=O)N[C@@H](C)C(=O)N1CCC[C@H]1C(=O)N1CCC[C@H]1C(=O)N1CCC[C@H]1C(=O)N[C@@H](CO)C(N)=O)[C@@H](C)O)C(C)C)[C@@H](C)CC` [Example 72] (H-Y[Aib]EGTLISDYSI[αMeL]LDKK([AEEA-AEEA-γGlu-C20 diacid])HQ[Aib]EFVEYLLETGPSSGAPPPS-NH2), for which the EC50 was greater than 5000 nM in assay [1], 0.0182 nM in assay [2] and greater than 5000 nM in assay [3].

Source of the values: patent US12723063B2, “GIPR-agonist compounds” (Eli Lilly and Company, priority 2019, dated 2026).
